This is an account of results in patent publication US11384060B2, “Amide compounds and use thereof” (ALPHALA CO., LTD., priority 2017, dated 2022).

In test [1] the target is T1, glucagon receptor (GCGR) (Homo sapiens, UniProt P47871).
T1 construct: expressed in transfected cells; host or cells: CHO-K1 cells overexpressing GCGR (membrane fractions)
In words: I125-glucagon binding assay (competition, GCGR membrane fractions). In a few lines:
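Membranes from CHO-K1 cells overexpressing GCGR, 7.5 μg/well in 50 mM Tris pH 7.4 with 0.5% BSA, were preincubated 5 min with serially diluted compounds, then given 0.0625 nM final I^125-glucagon for 30 min at 25° C. Bound label was filtered on PEI-coated GF/B and counted; IC50 by non-linear regression.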

The target in test [2] is T2, glucagon receptor (GCGR) overexpressed CHO-K1 cells or human primary hepatocytes (Homo sapiens, UniProt P47871).
T2 construct: expressed in transfected cells; host or cells: GCGR overexpressed CHO-K1 cells or human primary hepatocytes (endogenous receptor)
T2 sequence (P47871 26-477): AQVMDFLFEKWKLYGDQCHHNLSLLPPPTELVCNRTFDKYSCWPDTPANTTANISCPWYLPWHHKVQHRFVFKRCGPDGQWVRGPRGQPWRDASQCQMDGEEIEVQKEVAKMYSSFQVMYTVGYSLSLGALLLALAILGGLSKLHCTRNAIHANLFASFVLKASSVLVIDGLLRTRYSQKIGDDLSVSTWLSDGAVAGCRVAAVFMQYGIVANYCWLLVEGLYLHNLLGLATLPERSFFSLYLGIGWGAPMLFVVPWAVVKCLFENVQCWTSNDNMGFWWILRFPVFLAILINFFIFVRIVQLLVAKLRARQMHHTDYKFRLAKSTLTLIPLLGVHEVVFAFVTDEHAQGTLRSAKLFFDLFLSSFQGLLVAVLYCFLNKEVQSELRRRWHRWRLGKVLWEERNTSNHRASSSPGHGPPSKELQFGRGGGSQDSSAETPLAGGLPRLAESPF
Kind of test: Glucagon cAMP inhibition assay (Cisbio cAMP Dynamic 2 HTRF). In kind it is cell-based. The essentials:
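GCGR-overexpressing CHO-K1 cells or human primary hepatocytes in HBSS with 0.1% BSA and 800 nM IBMX, pre-incubated 30 min with serially diluted compounds (1% DMSO final), then stimulated 30 min at room temperature with glucagon at its EC50. cAMP measured by HTRF after 60 min lysis; IC50 by non-linear regression.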
On the technique in general: In TR-FRET formats the signal depends on donor and acceptor labels being close together.

Setting [3] is: competition with I125-glucagon 0.0625 nM, membrane fractions of GCGR overexpressed CHO-K1 cells.
The mark [4] stands for this setting: inhibition of glucagon (EC50 concentration) induced cAMP production.

Where two headings read alike, the source gives them in different places. A value given as a limit tells only on which side of the number the result lay.

T1 sequence (P47871 26-477): as above

On to `Cc1cc(OC[C@@H](Nc2ccc(C(=O)NCCC(=O)O)cc2)C(C)C)cc(C)c1-c1ccc(C(F)(F)F)cc1Cl` [Compound 2-11, (S)-3-(4-((1-((2′-chloro-2,6-dimethyl-4′-(trifluoromethyl)-[1,1′-biphenyl]-4-yl)oxy)-3-methylbutan-2-yl)amino)benzamido)propanoic Acid], for which the IC50 in test [1] (setting [3]) was 0.872 µM. Besides, in test [2] (setting [4]), the “IC50 cAMP” value was found to be 277.2 nM.
In the same order, the values of `CC[C@H](C)[C@@H](COc1ccc(-c2ccc(C(F)(F)F)cc2Cl)nc1)Nc1ccc(C(=O)NCCC(=O)O)cc1` [Compound 10-16, 3-(4-(((2S,3S)-1-((6-(2-chloro-4-(trifluoromethyl)phenyl)pyridin-3-yl)oxy)-3-methylpentan-2-yl)amino)benzamido)propanoic Acid] are 0.141 µM and 272 nM.
In the same order, the values of `CC(C)[C@@H](COc1ccc(-c2ccc(F)cc2)nn1)Nc1ccc(C(=O)NCCC(=O)O)cc1` [Compound 17-10, (S)-3-(4-((1-((6-(4-fluorophenyl)pyridazin-3-yl)oxy)-3-methylbutan-2-yl)amino)benzamido)propanoic Acid] are 2.3 µM and more than 30000 nM.
For the compound `CC(C)(C)[C@@H](COc1ccc(-c2ccc(C(F)(F)F)cc2F)c(Cl)c1)Nc1ccc(C(=O)NCCC(=O)O)cc1` [Compound 3-24, (S)-3-(4-((1-((2-chloro-2′-fluoro-4′-(trifluoromethyl)-[1,1′-biphenyl]-4-yl)oxy)-3,3-dimethylbutan-2-yl)amino)benzamido)propanoic Acid], in test [1] (setting [3]), the IC50 was 0.053 µM. Further, the “IC50 cAMP” value in test [2] (setting [4]) turned out to be 80 nM.
In the same order, the values of `CCCC[C@@H](COc1ccc(-c2ccc(C(F)(F)F)cc2F)c(Cl)c1)Nc1ccc(C(=O)NCCC(=O)O)cc1` [Compound 3-22, (S)-3-(4-((1-((2-chloro-2′-fluoro-4′-(trifluoromethyl)-[1,1′-biphenyl]-4-yl)oxy)hexan-2-yl)amino)benzamido)propanoic Acid] are 0.083 µM and 54 nM.
As to `CC[C@H](C)[C@@H](COc1ccc(-c2ccc(C(C)(C)C)cc2)cc1)Nc1ccc(C(=O)NCCC(=O)O)cc1` [Compound 1-3, 3-(4-(((2S,3S)-1-((4′-(tert-butyl)-[1,1′-biphenyl]-4-yl)oxy)-3-methylpentan-2-yl)amino)benzamido)propanoic Acid], in test [1] (setting [3]), the IC50 is 0.319 µM. Further, in test [2] (setting [4]), the “IC50 cAMP” value amounted to 884.4 nM.
Compound `CCCC[C@@H](COc1nnc(-c2ccc(OC(F)(F)F)cc2)o1)Nc1ccc(C(=O)NCCC(=O)O)cc1` [Compound 22-2, (S)-3-(4-((1-((5-(4-(trifluoromethoxy)phenyl)-1,3,4-oxadiazol-2-yl)oxy)hexan-2-yl)amino)benzamido)propanoic Acid] registered an IC50 in test [1] of 1.43 µM. In test [2], the “IC50 cAMP” value is reported as more than 30000 nM.
On the same counts, the results for `CC(C)COC[C@@H](Cc1ccc(-c2ccc(OC(F)(F)F)cc2)cc1)Nc1ccc(C(=O)NCCC(=O)O)cc1` [Compound 19-19, (R)-3-(4-((1-isobutoxy-3-(4′-(trifluoromethoxy)-[1,1′-biphenyl]-4-yl)propan-2-yl)amino)benzamido)propanoic Acid] are 0.317 µM and 582.5 nM.
In test [1] (setting [3]), `CC(C)(C)[C@@H](COc1ccc(-c2ccc(C(F)(F)F)cc2Cl)cc1)Nc1ccc(C(=O)NCCC(=O)O)cc1` [Compound 1-42, (S)-3-(4-((1-((2′-chloro-4′-(trifluoromethyl)-[1,1′-biphenyl]-4-yl)oxy)-3,3-dimethylbutan-2-yl)amino)benzamido)propanoic aid] had an IC50 of 0.234 µM. In addition, in test [2] (setting [4]), the “IC50 cAMP” value is given as 298 nM.
In the same order, the values of `CC[C@H](C)[C@@H](COc1ccc(-c2ccc(Cl)cc2Cl)cc1)Nc1ccc(C(=O)NC[C@@H](O)C(=O)O)cc1` [Compound 1-14, (R)-3-(4-(((2S,3S)-1-((2′,4′-dichloro-[1,1′-biphenyl]-4-yl)oxy)-3-methylpentan-2-yl)amino)benzamido)-2-hydroxypropanoic Acid] are 0.112 µM and 3553 nM.
The compound `COC(=O)CCNC(=O)c1ccc(N[C@@H](CC(C)C)C(=O)Nc2ccc(-c3cc4ccccc4[nH]3)cc2)cc1` [Compound 23-28, Methyl (S)-3-(4-((1-((4-(1H-indol-2-yl)phenyl)amino)-4-methyl-1-oxopentan-2-yl)amino)benzamido)propanoate] yielded an IC50 in test [1] of 6.94 µM. For the same compound, the “IC50 cAMP” value in test [2] amounted to 179 nM.
In the same order, the values of `C[C@@H](Cc1ccc(-c2ccc(C(F)(F)F)cc2)cc1)Nc1ccc(C(=O)NCCC(=O)O)cc1` [Compound 19-3, (S)-3-(4-((1-(4′-(trifluoromethyl)-[1,1′-biphenyl]-4-yl)propan-2-yl)amino)benzamido)propanoic Acid] are 2.73 µM and 2719 nM.
On the same counts, the results for `O=C(O)CCNC(=O)c1ccc(N[C@H](Cc2ccc(-c3cc4ccccc4o3)cc2)C(=O)Nc2ccc(C(F)(F)F)cc2)cc1` [Compound 24-20, (R)-3-(4-((3-(4-(benzofuran-2-yl)phenyl)-1-oxo-1-((4-(trifluoromethyl)phenyl)amino)propan-2-yl)amino)benzamido)propanoic Acid] are 0.193 µM and 1947 nM.
Consider `CCOC(=O)CCNC(=O)c1ccc(N[C@H](COc2ccc(-c3nc4ccccc4s3)cn2)C(C)C)cc1` [Compound 15-36, Ethyl (S)-3-(4-((1-((5-(benzo[d]thiazol-2-yl)pyridin-2-yl)oxy)-3-methylbutan-2-yl)amino)benzamido)propanoate], for which the IC50 in test [1] (uM) was more than 30 µM. In addition, the “IC50 cAMP” value in test [2] is listed as 1973 nM.
Consider `CC(C)C[C@@H](COc1ccc(-c2ccc(C(F)(F)F)nn2)cn1)Nc1ccc(C(=O)NCCC(=O)O)cc1` [Compound 15-19, (S)-3-(4-((4-methyl-1-((5-(6-(trifluoromethyl)pyridazin-3-yl)pyridin-2-yl)oxy)pentan-2-yl)amino)benzamido)propanoic Acid], for which the IC50 in test [1] came out at 2.99 µM. Further, the “IC50 cAMP” value in test [2] is more than 30000 nM.
`CC(C)[C@@H](COc1ccc(-c2ccc(C(F)(F)F)cc2Cl)nc1)Nc1ccc(C(=O)NCCC(=O)O)cn1` [Compound 11-1, (S)-3-(6-((1-((6-(2-chloro-4-(trifluoromethyl)phenyl)pyridin-3-yl)oxy)-3-methylbutan-2-yl)amino)nicotinamido)propanoic Acid] registered an IC50 in test [1] (setting [3]) of 1.74 µM. Also, the “IC50 cAMP” value in test [2] (setting [4]) is 8711 nM.
In the case of `CC(C)[C@@H](COc1ccc(-c2nc3ccccc3s2)cn1)Nc1ccc(C(=O)NCCC(=O)O)cc1` [Compound 15-37, (S)-3-(4-((1-((5-(benzo[d]thiazol-2-yl)pyridin-2-yl)oxy)-3-methylbutan-2-yl)amino)benzamido)propanoic Acid], the IC50 in test [1] is 0.468 µM. Further, the “IC50 cAMP” value in test [2] is 1609 nM.
In the same order, the values of `CCCCC[C@@H](Cc1ccc(-c2ccc(OC(F)(F)F)cc2)cc1)Nc1ccc(C(=O)NCCC(=O)O)cc1` [Compound 19-9, (S)-3-(4-((1-(4′-(trifluoromethoxy)-[1,1′-biphenyl]-4-yl)heptan-2-yl)amino)benzamido)propanoic Acid] are 0.151 µM and 76.8 nM.
In test [1], `CC[C@H](C)[C@@H](COc1ccc(-c2ccc(C(F)(F)F)cc2)cn1)Nc1ccc(C(=O)NCCC(=O)O)cc1` [Compound 15-12, 3-(4-(((2S,3S)-3-methyl-1-((5-(4-(trifluoromethyl)phenyl)pyridin-2-yl)oxy)pentan-2-yl)amino)benzamido)propanoic Acid] yielded a half-maximal inhibitory concentration (IC50) of 0.376 µM. In test [2], the “IC50 cAMP” value stood at 294 nM.
On the same counts, the results for `CCCOC[C@H](Cc1ccc(-c2ccc(C(F)(F)F)cc2)cc1)Nc1ccc(C(=O)NCCC(=O)O)cc1` [Compound 19-13, (S)-3-(4-((1-propoxy-3-(4′-(trifluoromethyl)-[1,1′-biphenyl]-4-yl)propan-2-yl)amino)benzamido)propanoic Acid] are 0.621 µM and 740 nM.
For the compound `COc1cc(OC[C@@H](Nc2ccc(C(=O)NCCC(=O)O)cn2)C(C)C)ccc1-c1cc2ccccc2o1` [Compound 14-1, (S)-3-(6-((1-(4-(benzofuran-2-yl)-3-methoxyphenoxy)-3-methylbutan-2-yl)amino)nicotinamido)propanoic Acid], the IC50 in test [1] (setting [3]) amounted to 0.75 µM. In addition, the “IC50 cAMP” value in test [2] (setting [4]) is recorded as 1232 nM.
On the same counts, the results for `CC(C)C[C@@H](COc1ccc(-c2ccc(C(F)(F)F)cc2F)c(F)c1)Nc1ccc(C(=O)NCCC(=O)O)cc1` [Compound 8-6, (S)-3-(4-((1-((2,2′-difluoro-4′-(trifluoromethyl)-[1,1′-biphenyl]-4-yl)oxy)-4-methylpentan-2-yl)amino)benzamido)propanoic Acid] are 0.172 µM and 428 nM.
On the same counts, the results for `COc1cc(OC[C@@H](Nc2ccc(C(=O)NCCC(=O)O)cc2)C(C)C)ccc1-c1ccc(Cl)cc1Cl` [Compound 13-7, (S)-3-(4-((1-((2′,4′-dichloro-2-methoxy-[1,1′-biphenyl]-4-yl)oxy)-3-methylbutan-2-yl)amino)benzamido)propanoic Acid] are 0.095 µM and 139 nM.
`CC(C)(C)c1ccc(-c2nnc([C@H](Cc3ccc(-c4cc5ccccc5o4)cc3)Nc3ccc(C(=O)NCCC(=O)O)cc3)o2)cc1` [Compound 20-1, (S)-3-(4-((2-(4-(benzofuran-2-yl)phenyl)-1-(5-(4-(tert-butyl)phenyl)-1,3,4-oxadiazol-2-yl)ethyl)amino)benzamido)propanoic Acid]: the IC50 in test [1] was 0.201 µM. Besides, the “IC50 cAMP” value in test [2] is recorded as 1403 nM.

One may read the IC50 as the concentration that gives 50% inhibition. High values mean a need for much substance, low ones inhibition by little substance.
